# According to article PMC4259358, “Functional Characterization of Nuclear Localization and Export Signals in Hepatitis C Virus Proteins and Their Role in the Membranous Web” (PLoS ONE, 2014):
# Key:
# HEK293T cells = test: Localization of nuclear transport signal-double GFP reporter in HEK293T cells; format: cell-based; parameters: key: +++ for strong; ++ for moderate; + for weak; − for no localization; settings: double GFP cargo, 24 h post transfection, fluorescence quantified with ImageJ (S6, S7 Figures); NES/SEN on SV40 NLS double GFP
# Source text: To determine whether NTF binding sites found in the HCV proteins were functional nuclear transport signals, we constructed reporter proteins each consisting of one of the HCV proteins NTF binding sites followed by two C-terminal, tandemly repeated GFP molecules. The double GFP moieties were required to keep the reporter from entering the nucleus, since a single GFP is small enough to diffuse freely through NPCs, [35]. As controls, constructs containing the reversed amino-acid residue sequence of the potential NLS (SLN) were also examined using the double GFP reporter assay (S5 Figure). These SLN reporters were predicted to not accumulate in the nucleoplasm. In addition, reporters to examine the functionality of the potential XPO1 binding domains were also constructed. These reporters consist of an SV40 NLS and a double GFP molecule followed by one of the various potential NESs at the C-terminus (S5 Figure). In the absence of a functional NES, this reporter will accumulate in the nucleus. However, a functional NES is predicted to export the reporter, leading to increased steady-state levels of the reporter in the cytoplasm.
# Figure 4 Functionality of the putative nuclear transport signals in cells. Cells were transfected by the vectors encoding a nuclear transport reporter consisting of a tandemly repeated double GFP fused to the indicated C-terminal nuclear transport signal (panels A-N). At 24 h following transfection, cells were fixed and stained with Hoechst to visualize the nucleus. Cells were examined using a Zeiss inverted Axiovert 200 M microscope to assess the localization of the GFP (green) and its relationship to the nucleus (blue). A hashed yellow square demarcates the magnified area shown in the right-most image of each panel. Fluorescent intensity was quantified using ImageJ v. […] Analysis of the reverse sequences of each transport signal as well as the mutant SV40 NLS was also performed and the results are shown in S7 Figure.
# Nuclear transport signals-double GFP constructs were transfected into HEK293T cells using lipofectamine 2000. At 24 h post transfection cells were fixed, stained, and visualized for localization of the GFP. For detailed information see S1 Methods.
# Nuclear transport signal-double GFP constructs were transfected into HEK293T cells using lipofectamine 2000 reagent (Invitrogen, 11668019). At 24 h post transfection cells were fixed with 3.76% formaldehyde at room temperature (Sigma, F8775-500ML) for 8 min then permeabilized in 0.2% Triton X-100 (VWR, CA97062-208) for 2 min. Cells were washed three times with X1 PBS and were stained with Hoechst 1:5000 in X1 PBS for 5 min followed by three washes with X1 PBS. The cells were visualized using a Zeiss inverted Axiovert 200M microscope with a 20x/0.8 objective lens to examine localization of the GFP. At least ten random fields of cells were imaged for each combination. Channels were merged using ImageJ software (National Institutes of Health). Photoshop Elements 10 (Adobe) software was used to adjust brightness and contrast levels for individual images and to assemble images into figures.
# [1] = test system: core- and NS2-XPO1 interactions; test: Peptide competition of HCV protein-NTF interaction (ELISA in-vitro, Co-IP in cell culture); format: biochemical; settings: plates coated with HCV protein, 100 µM peptide, n = 3
# Experimental: (§1) To examine the specificity of the interactions between HCV proteins and NTFs, we examined the ability of each putative NLS or NES peptide identified in Fig. 1 to disrupt the interaction between the HCV protein and the NTF, using an ELISA in-vitro and co-immunoprecipitation (Co-IP) in cell culture assays (Fig. 3, S3 and S4 Figure). The ELISA plates were coated with HCV proteins while NTFs and competitive peptides were added, and the fraction of bound NTF was measured using NTF specific antibodies. The Co-IP was conducted by expression of V5 tagged HCV proteins in the presence of competing peptides, followed by immunoprecipitation with V5 specific antibody and immunoblotting with specific NTF antibodies.
# (§2) Figure 3 Analysis of HCV protein binding to NTFs in the presence of NLS and NES peptides. ELISA plates were coated with HCV proteins and the relative binding of the different NTFs was monitored by ELISA in the presence of 100 µM of the indicated peptide. For the Co-IP study, cells were transfected by plasmid encoding to V5 tagged HCV proteins and treated by the indicated peptides. After 48 h, cells were lysed and Co-IP using anti V5 antibody and blotted to enable detection of the different NTFs. Western blots were quantified using Multi Gauge v. 3.0. […] The y-axis represents the percentage of NTF bound to the HCV protein; the interaction without the peptide is set to 100%. Error bars represent ± standard deviation, n = 3. The significant difference between the untreated (no peptide) and peptide treated is indicated by: * p<0.05, ** p<0.01, *** p<0.001, **** p<0.0001.
# (§3) Protein-peptide and protein-protein binding were estimated using an ELISA-based binding assay as described previously. Briefly, ELISA plates were coated with 200 µl of a 10 µg/ml of synthetic peptide or recombinant protein in a carbonate buffer (0.05 M Na2CO3/0.05 M NaHCO3, pH 9.6) overnight at 4°C. After incubation, the solution was removed, and the plates were washed three times with PBS. […] Each measurement was performed in duplicate.
# [2] = test system: interaction of core, NS3, or NS5A with IPO5; test: as above; format: biochemical; settings: ELISA with 100 µM peptide and Co-IP of V5 tagged HCV proteins; n = 3
# Experimental: as §1, §2, §3
# [3] = test system: interaction of core, NS2, or NS3 with IPOA5; test: as above; format: biochemical; settings: ELISA with 100 µM peptide and Co-IP of V5 tagged HCV proteins; n = 3
# Experimental: as §1, §2, §3
# IPOA5 = target: T1, IPOA5 (Homo sapiens, UniProt P52294); test: biochemical; format: binding; settings: ELISA, immobilized peptide or HCV protein
# T1 construct: Expression and purification of full length IPOA5, IPO5 were perform according to methods described previously; His tag; made in house; host or cells: Escherichia coli BL21(DE3), pET21 vector
# T1 sequence (P52294 whole entry): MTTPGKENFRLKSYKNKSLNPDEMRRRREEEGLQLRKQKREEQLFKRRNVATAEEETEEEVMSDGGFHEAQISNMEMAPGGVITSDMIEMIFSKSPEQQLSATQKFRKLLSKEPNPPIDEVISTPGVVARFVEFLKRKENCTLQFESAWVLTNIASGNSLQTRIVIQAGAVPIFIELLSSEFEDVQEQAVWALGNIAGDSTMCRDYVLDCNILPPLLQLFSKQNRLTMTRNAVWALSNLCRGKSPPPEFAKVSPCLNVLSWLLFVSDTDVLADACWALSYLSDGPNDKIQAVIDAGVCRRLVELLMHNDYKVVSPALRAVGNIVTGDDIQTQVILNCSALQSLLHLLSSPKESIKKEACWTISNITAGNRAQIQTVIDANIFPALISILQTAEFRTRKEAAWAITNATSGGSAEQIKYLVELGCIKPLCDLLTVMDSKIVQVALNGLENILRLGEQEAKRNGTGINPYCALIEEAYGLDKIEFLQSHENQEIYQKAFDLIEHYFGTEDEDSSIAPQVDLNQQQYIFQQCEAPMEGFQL
# XPO1 = target: T2, XPO1 (Homo sapiens, UniProt O14980); test: ELISA-based binding assay (Kd(app))
# T2 construct: Expression and purification of full length XPO1 were perform according to methods described in a previous publication; His tag; made in house; host or cells: Escherichia coli BL21(DE3), pET21 vector
# T2 sequence (O14980 whole entry): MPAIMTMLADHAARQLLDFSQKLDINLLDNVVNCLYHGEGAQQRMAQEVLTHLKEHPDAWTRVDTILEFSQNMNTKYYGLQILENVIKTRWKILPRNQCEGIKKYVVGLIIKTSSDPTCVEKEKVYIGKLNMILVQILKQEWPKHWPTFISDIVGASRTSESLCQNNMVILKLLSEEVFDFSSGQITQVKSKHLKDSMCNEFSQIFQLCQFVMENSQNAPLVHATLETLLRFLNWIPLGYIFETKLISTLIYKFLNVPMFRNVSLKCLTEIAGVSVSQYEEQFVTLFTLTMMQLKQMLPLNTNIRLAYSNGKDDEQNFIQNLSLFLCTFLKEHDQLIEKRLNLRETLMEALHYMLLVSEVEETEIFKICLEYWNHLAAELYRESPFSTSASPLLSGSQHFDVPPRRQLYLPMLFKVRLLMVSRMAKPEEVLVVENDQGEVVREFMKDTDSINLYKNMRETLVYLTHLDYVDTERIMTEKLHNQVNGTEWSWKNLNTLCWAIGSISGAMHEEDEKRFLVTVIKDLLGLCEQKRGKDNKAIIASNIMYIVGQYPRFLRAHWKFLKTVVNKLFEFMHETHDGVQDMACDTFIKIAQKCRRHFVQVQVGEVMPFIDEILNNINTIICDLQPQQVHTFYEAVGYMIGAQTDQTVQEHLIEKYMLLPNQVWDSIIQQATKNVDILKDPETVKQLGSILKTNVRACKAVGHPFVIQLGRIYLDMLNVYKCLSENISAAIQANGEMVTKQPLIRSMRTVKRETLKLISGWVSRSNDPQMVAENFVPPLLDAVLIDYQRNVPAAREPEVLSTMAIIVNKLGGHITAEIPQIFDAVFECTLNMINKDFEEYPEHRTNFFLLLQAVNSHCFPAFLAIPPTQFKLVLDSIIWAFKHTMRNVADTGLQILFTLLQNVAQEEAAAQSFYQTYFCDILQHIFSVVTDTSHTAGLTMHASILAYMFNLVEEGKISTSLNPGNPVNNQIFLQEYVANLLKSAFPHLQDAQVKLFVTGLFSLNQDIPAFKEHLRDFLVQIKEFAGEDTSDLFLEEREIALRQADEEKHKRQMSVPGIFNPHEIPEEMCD
# JFH-1 HCV [4] = settings: literature value; cited from earlier work
# Experimental: Ezetimibe is known to inhibit a late stage of HCV entry, and it lost its ability to inhibit HCV infection when added 4–10 h PTS, thus defining the last phase of entry (Fig. 6A). […] In our study, the inhibitory effect of LMB was lost 10–14 hours PTS (Fig. 6A). BMS-986094, an inhibitor of NS5B polymerase, lost its ability to inhibit HCV infection when added 10–24 h PTS, thus defining the period of viral RNA synthesis (Fig. 6A). The ...
# JFH-1 HCV [5] = format: cell-based, Hepatitis C virus
# Experimental: Huh7.5 cells were infected with JFH-1 HCV and maintained at 4°C for 4 hours (h) to synchronize the cells before shifting the temperature to 37°C. Post temperature shift (PTS), infected cells were incubated for various lengths of times prior to the addition of peptides or known inhibitors of HCV at 2 h intervals. […] We deliberately selected the final time point of 72 h PTS to reflect the number of cells infected by a second round of infection. […] This would be reflected by the number of cells infected in the second round as measured at 72 h PTS.
# In order to elucidate the time points in infection when the nuclear transport signals bearing peptides are functional, cells were synchronously infected and treated with the indicated peptides. Each time point (2 h intervals) represents a culture treated with the indicated reagent at the specified time post temperature shift (PTS) and initiation of HCV infection. […] (A) Known inhibitors of HCV production (Ezetimibe (30 µM), LMB (18 nM), BMS-986094 (10 nM) and DGAT 1 inhibitor (10 nM)) and control (Pen peptide 100 µM, DMSO 2%, no treatment, and no infection) were examined. […] Error bars represent ± standard deviation, n = 3.
# For the time of addition experiments, cells were seeded at a density of 6.25×10^4 cells/well in a 96-well plate and infected with 0.1 genomic equivalents of serially passaged JFH-1 virus on ice: cells then were incubated at 4°C for 4 h.
# Briefly, Huh7.5 cells were infected as described above and the test compounds were added to different wells at different time points before the temperature shift (-4 h and -2 h) and every 2 h after the temperature shift (0, 2, 4,…, 48 h). […] The infection levels were calculated by counting infected and total cells numbers in ten random fields for each condition. The non-treated cell infection level was normalized to 100% and all other infections were calculated based on that normalization.
compound,measurement,setting,value
"PKTKRKVRQIKIWFQNRRMKWKK [SV40 mut NLS, reference compound]",Localization Cytoplasmic,HEK293T cells,+++
same,Localization Nuclear,HEK293T cells,−
same,"effect of peptide on HCV protein-XPO1 interaction (in words), ELISA",[1],"do not interfere with IPOA5, IPO5 or XPO1 binding"
same,effect of peptide on HCV protein-IPO5 interaction (in words),[2],"do not interfere with IPOA5, IPO5 or XPO1 binding"
same,effect of peptide on HCV protein-IPOA5 interaction (in words),[3],"do not interfere with IPOA5, IPO5 or XPO1 binding"
same,binding to IPOA5 (in words),IPOA5,does not bind IPOA5
CC[C@H](C)[C@H](NC(=O)[C@H](CC(C)C)NC(=O)[C@H](CCCNC(=N)N)NC(=O)[C@H](C)NC(=O)[C@H](CC(C)C)NC(=O)[C@H](Cc1ccccc1)NC(=O)[C@H](CC(C)C)NC(=O)[C@H](CCCCN)NC(=O)[C@H](Cc1ccc(O)cc1)NC(=O)[C@H](Cc1c[nH]cn1)NC(=O)[C@@H]1CCCN1C(=O)[C@H](CO)NC(=O)[C@H](CC(C)C)NC(=O)[C@@H](NC(=O)[C@H](CC(C)C)NC(=O)[C@H](CC(C)C)NC(=O)[C@@H](NC(=O)[C@@H](N)CC(C)C)[C@@H](C)CC)[C@@H](C)O)C(=O)N[C@@H](Cc1c[nH]c2ccccc12)C(=O)N[C@@H](Cc1c[nH]c2ccccc12)C(=O)N[C@@H](CC(C)C)C(=O)N[C@@H](CCC(N)=O)C(=O)N[C@@H](Cc1ccc(O)cc1)C(=O)N[C@@H](Cc1ccccc1)C(=O)N[C@H](C(=O)N[C@H](C(=O)N[C@@H](CCCNC(=N)N)C(=O)N[C@@H](CCC(N)=O)C(=O)N[C@H](C(=O)N[C@@H](CCCCN)C(=O)N[C@H](C(=O)N[C@@H](Cc1c[nH]c2ccccc12)C(=O)N[C@@H](Cc1ccccc1)C(=O)N[C@@H](CCC(N)=O)C(=O)N[C@@H](CC(N)=O)C(=O)N[C@@H](CCCNC(=N)N)C(=O)N[C@@H](CCCNC(=N)N)C(=O)N[C@@H](CCSC)C(=O)N[C@@H](CCCCN)C(=O)N[C@@H](Cc1c[nH]c2ccccc12)C(=O)N[C@@H](CCCCN)C(=O)N[C@@H](CCCCN)C(=O)O)[C@@H](C)CC)[C@@H](C)CC)[C@@H](C)O)[C@@H](C)CC [NS2 NES],Kd,XPO1,79.9 ± 25.6 nM
"CCC(=C/[C@H](C)C/C=C/C(C)=C/[C@@H](C)C(=O)[C@@H](C)[C@H](O)[C@@H](C)C/C(C)=C/C(=O)O)/C=C/[C@@H]1OC(=O)C=C[C@@H]1C [LMB, Leptomycin B]",time at which the inhibitory effect on HCV was lost,JFH-1 HCV [4],8 h post infection
COc1nc(N)nc2c1ncn2[C@@H]1O[C@H](COP(=O)(N[C@@H](C)C(=O)OCC(C)(C)C)Oc2cccc3ccccc23)[C@@H](O)[C@@]1(C)O (stereo partly shown) [BMS-986094],time of addition at which the ability to inhibit HCV infection is lost,"JFH-1 HCV [5]; Huh7.5, JFH-1, 4 h at 4°C then 37°C, added at 2 h intervals, % NS5A-positive cells at 72 h PTS, Ezetimibe 30 µM, LMB 18 nM, BMS-986094 10 nM, DGAT 1 inhibitor 10 nM, n = 3",10–24 h PTS
RQIKIWFQNRRMKWKK [Pen],effect on infection (in words),"JFH-1 HCV [5]; Pen peptide 100 µM, time of addition experiment",had no effect on infection
same,"effect of peptide on HCV protein-XPO1 interaction (in words), ELISA",[1],"do not interfere with IPOA5, IPO5 or XPO1 binding"
same,effect of peptide on HCV protein-IPO5 interaction (in words),[2],"do not interfere with IPOA5, IPO5 or XPO1 binding"
same,effect of peptide on HCV protein-IPOA5 interaction (in words),[3],"do not interfere with IPOA5, IPO5 or XPO1 binding"
